Assay results as given in patent US20250034097A1, “MICROBIOCIDAL ISONICOTINIC AMIDE DERIVATIVES” (SYNGENTA CROP PROTECTION AG, priority 2021, published 2025).

Assays:
[1] = test system: Glomerella lagenarium; experiment: Glomerella lagenarium syn Colletotrichum lagenarium (anthracnose), growth inhibition in nutrient broth; format: cell-based; details: Colletotrichum orbiculare, PDB broth, 24° C., 72 hours, photometric at 620 nm, compared to untreated control
Experimental: (§1) Conidia of the fungus from cryogenic storage were directly mixed into nutrient broth (PDB potato dextrose broth). A DMSO solution of the test compounds was placed into a microtiter plate (96-well format) and the nutrient broth containing the fungal spores was added to it. The test plates were incubated at 24° C. and the inhibition of growth was determined photometrically after 72 hours at 620 nm.

[2] = test system: Monographella nivalis; experiment: Monographella nivalis syn. Microdochium nivale (snow mould, foot rot), growth inhibition in nutrient broth; format: cell-based; details: "at ppm" (concentration not given); PDB broth, 24° C., 72 hours, photometric at 620 nm; compared to untreated control
Experimental: as §1

[3] = test system: Alternaria solani; experiment: Alternaria solani (early blight of tomato), tomato leaf disks, preventive; format: in vivo; details: 200 ppm, assessed 4 dpi, compared to untreated control
Experimental: Alternaria solani (Early Blight of Tomato) Tomato leaf disks are placed on water agar in multiwell plates (24-well format) and sprayed with test solutions. After drying, the leaf disks are inoculated with a spore suspension of the fungus. After appropriate incubation the activity of a compound is assessed 4 dpi (days post inoculation) as preventive fungicidal activity.

[4] = test system: Pyrenophora teres; experiment: Pyrenophora teres (net blotch of barley), barley leaf segments, preventive; format: in vivo; details: 200 ppm, assessed 4 dpi, compared to untreated control
Experimental: Barley leaf segments are placed on agar in multiwell plates (24-well format) and sprayed with test solutions. After drying, the leaf disks are inoculated with a spore suspension of the fungus. After appropriate incubation, the activity of a compound is assessed 4 dpi (days after inoculation) as preventive fungicidal activity.

[5] = test system: Sclerotinia sclerotiorum; experiment: Sclerotinia sclerotiorum (cottony rot, white mold), growth inhibition in nutrient broth; format: cell-based; details: 20 ppm; PDB broth, 24° C., 72 hours, photometric at 620 nm; compared to untreated control
Experimental: as §1, with “Mycelial fragments” for “Conidia”, “fungus prepared” for “fungus”, “a fresh liquid culture” for “cryogenic storage”

CC(C)Oc1nncc(Oc2cccc(C3CC3)c2)c1C(=O)NCC(F)c1ccc(Cl)cc1Cl (centres unmarked) [Compound 2.4, 5-(3-cyclopropylphenoxy)-N-[2-(2,4-dichlorophenyl)-2-fluoro-ethyl]-3-isopropoxy-pyridazine-4-carboxamide]
inhibition of growth at 20 ppm [1]: ≥ 80%

O=C(NCC(F)c1ccc(Cl)cc1Cl)c1c(Oc2cccc(C3CC3)c2)cnnc1C#CC1CC1 (centres unmarked) [Compound 2.6, 3-(2-cyclopropylethynyl)-5-(3-cyclopropylphenoxy)-N-[2-(2,4-dichlorophenyl)-2-fluoro-ethyl]pyridazine-4-carboxamide]
inhibition of growth at 20 ppm [1]: ≥ 80%

O=C(NCC(F)c1ccc(Cl)cc1Cl)c1c(Oc2cccc(C3CC3)c2)cnnc1C1CC1 (centres unmarked) [Compound 2.8, 3-cyclopropyl-5-(3-cyclopropylphenoxy)-N-[2-(2,4-dichlorophenyl)-2-fluoro-ethyl]pyridazine-4-carboxamide]
inhibition of growth at 20 ppm [1]: ≥ 80%

Cc1ncc(Oc2cccc(C3CC3)c2)c(C(=O)NCC(F)c2ccc(Cl)cc2Cl)n1 (centres unmarked) [Compound 1.2, 5-(3-cyclopropylphenoxy)-N-[2-(2,4-dichlorophenyl)-2-fluoro-ethyl]-2-methyl-pyrimidine-4-carboxamide]
control of Monographella nivalis [2]: at least 80%
control of Alternaria solani [3]: at least 80%
control of Pyrenophora teres [4]: at least 80%
inhibition of growth at 20 ppm [1]: ≥ 80%
control of Sclerotinia sclerotiorum [5]: at least 80%

O=C(NCC(F)c1ccc(Cl)cc1Cl)c1c(Oc2cccc(C3CC3)c2)cnnc1O (centres unmarked) [Compound 2.15, 5-(3-cyclopropylphenoxy)-N-[2-(2,4-dichlorophenyl)-2-fluoro-ethyl]-3-hydroxy-pyridazine-4-carboxamide]
inhibition of growth at 20 ppm [1]: ≥ 80%

O=C(NCC(F)c1ccc(Cl)cc1Cl)c1cnncc1Oc1cccc(C2CC2)c1 (centres unmarked) [Compound 2.10, 5-(3-cyclopropylphenoxy)-N-[2-(2,4-dichlorophenyl)-2-fluoro-ethyl]pyridazine-4-carboxamide]
inhibition of growth at 20 ppm [1]: ≥ 80%

C=C(C)c1nncc(Oc2cccc(C3CC3)c2)c1C(=O)NCC(F)c1ccc(Cl)cc1Cl (centres unmarked) [Compound 2.7, 5-(3-cyclopropylphenoxy)-N-[2-(2,4-dichlorophenyl)-2-fluoro-ethyl]-3-isopropenyl-pyridazine-4-carboxamide]
inhibition of growth at 20 ppm [1]: ≥ 80%

Cc1ncc(Oc2cccc(C3CC3)c2)c(C(=O)NCCc2ccc(Cl)cc2Cl)n1 [Compound 1.1, 5-(3-cyclopropylphenoxy)-N-[2-(2,4-dichlorophenyl)ethyl]-2-methyl-pyrimidine-4-carboxamide]
inhibition of growth at 20 ppm [1]: ≥ 80%

CC(C)c1nncc(Oc2cccc(C3CC3)c2)c1C(=O)NC[C@H](F)c1ccc(Cl)cc1Cl [Compound 2.16, 5-(3-cyclopropylphenoxy)-N-[(2R)-2-(2,4-dichlorophenyl)-2-fluoro-ethyl]-3-isopropyl-pyridazine-4-carboxamide]
inhibition of growth at 20 ppm [1]: ≥ 80%

CC(C)c1nncc(Oc2cccc(C3CC3)c2)c1C(=O)NCC(F)c1ccc(Cl)cc1Cl (centres unmarked) [Compound 2.9, 5-(3-cyclopropylphenoxy)-N-[2-(2,4-dichlorophenyl)-2-fluoro-ethyl]-3-isopropyl-pyridazine-4-carboxamide]
inhibition of growth at 20 ppm [1]: ≥ 80%

COc1nncc(Oc2cccc(C3CC3)c2)c1C(=O)NCCc1ccc(Cl)cc1Cl [Compound 2.12, 5-(3-cyclopropylphenoxy)-N-[2-(2,4-dichlorophenyl)ethyl]-3-methoxy-pyridazine-4-carboxamide]
inhibition of growth at 20 ppm [1]: ≥ 80%

C=C(C)COc1nncc(Oc2cccc(C3CC3)c2)c1C(=O)NCC(F)c1ccc(Cl)cc1Cl (centres unmarked) [Compound 2.5, 5-(3-cyclopropylphenoxy)-N-[2-(2,4-dichlorophenyl)-2-fluoro-ethyl]-3-(2-methylallyloxy)pyridazine-4-carboxamide]
inhibition of growth at 20 ppm [1]: ≥ 80%

Cc1nncc(Oc2cccc(C3CC3)c2)c1C(=O)NCC(F)c1ccc(Cl)cc1Cl (centres unmarked) [Compound 2.1, 5-(3-cyclopropylphenoxy)-N-[2-(2,4-dichlorophenyl)-2-fluoro-ethyl]-3-methyl-pyridazine-4-carboxamide]
inhibition of growth at 20 ppm [1]: ≥ 80%
